Measured values: US20070178494A1, “Methods for prediction and prognosis of cancer, and monitoring cancer therapy” (priority 2005, published 2007)

Key:
[1] = tested on: advanced renal cell cancer; assay: Progression-free survival by baseline VEGF level, Phase III TARGETs study; format: in vivo, human; settings: patients receiving sorafenib
Protocol: All analyses were carried out under IRB-approved protocols.
Measures of patient outcome found useful were time to death (TTD) and progression-free survival (PFS) using a Cox regression analysis. Baseline levels of VEGF were determined and changes in the baseline level were determined at week 18 of treatment. The effects observed were adjusted for age, gender, ECOG status or Motzer score. These adjustments were minimal.

VEGF = assay: ELISA of plasma VEGF pre- and post-treatment, Phase III TARGETs study; format: in vivo, human; settings: patients with advanced renal cell cancer, after 3 weeks of treatment, p=3.2E-5

**Q.** Which results are given for `CNC(=O)c1cc(Oc2ccc(NC(=O)Nc3ccc(Cl)c(C(F)(F)F)c3)cc2)ccn1` [sorafenib]?
**A.** difference in PFS between patients with high (>250 pg/mL) or low (<250 pg/mL) baseline VEGF levels [1]: no significant difference; change of VEGF levels from baseline (VEGF): increased significantly
